In ChEMBL document CHEMBL5537212, “Benzodioxane Carboxamide Derivatives As Novel Monoamine Oxidase B Inhibitors with Antineuroinflammatory Activity” (ACS Med Chem Lett, 2024):

Experiments:
[1] = biological target: T1, Amine oxidase [flavin-containing] B (Homo sapiens, UniProt P27338); assay: Inhibition of recombinant human MAO-B using benzylamine as substrate at 1 uM incubated for 20 mins by fluorescence microplate reader analysis relative to control; conditions: read-out: INH
T1 sequence (P27338 whole entry): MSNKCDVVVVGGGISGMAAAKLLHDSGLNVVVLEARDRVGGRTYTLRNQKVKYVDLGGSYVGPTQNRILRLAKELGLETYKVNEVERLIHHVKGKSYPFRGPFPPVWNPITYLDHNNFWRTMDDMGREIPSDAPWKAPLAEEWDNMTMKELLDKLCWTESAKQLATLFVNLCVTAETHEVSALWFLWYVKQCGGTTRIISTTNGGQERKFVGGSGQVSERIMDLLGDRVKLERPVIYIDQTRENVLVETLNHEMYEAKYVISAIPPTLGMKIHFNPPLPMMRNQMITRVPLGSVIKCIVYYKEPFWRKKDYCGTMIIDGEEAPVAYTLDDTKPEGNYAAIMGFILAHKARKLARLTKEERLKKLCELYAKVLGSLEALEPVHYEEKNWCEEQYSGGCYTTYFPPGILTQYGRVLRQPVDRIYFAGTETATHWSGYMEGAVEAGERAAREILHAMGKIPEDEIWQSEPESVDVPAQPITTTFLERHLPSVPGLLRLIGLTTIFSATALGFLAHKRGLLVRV

[2] = biological target: T2, Amine oxidase [flavin-containing] A (Homo sapiens, UniProt P21397)
T2 sequence (P21397 whole entry): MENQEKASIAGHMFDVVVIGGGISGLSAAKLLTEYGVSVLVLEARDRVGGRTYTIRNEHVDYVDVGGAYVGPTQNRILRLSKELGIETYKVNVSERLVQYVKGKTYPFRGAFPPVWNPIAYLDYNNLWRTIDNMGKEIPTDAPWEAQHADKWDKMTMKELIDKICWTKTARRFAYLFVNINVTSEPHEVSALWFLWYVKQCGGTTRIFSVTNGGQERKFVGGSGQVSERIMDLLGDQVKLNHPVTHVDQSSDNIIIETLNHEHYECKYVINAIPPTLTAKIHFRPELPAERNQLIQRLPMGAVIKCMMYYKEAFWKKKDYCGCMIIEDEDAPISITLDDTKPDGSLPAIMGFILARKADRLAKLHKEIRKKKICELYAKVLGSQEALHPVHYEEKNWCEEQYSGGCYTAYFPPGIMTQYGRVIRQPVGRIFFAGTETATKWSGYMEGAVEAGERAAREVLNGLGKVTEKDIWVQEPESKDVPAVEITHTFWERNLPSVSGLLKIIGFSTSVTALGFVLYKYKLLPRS
Description: Inhibition of recombinant human MAO-A incubated for 15 mins by Amplex Red reagent and horseradish peroxidase based fluorescence microplate reader analysis

[3] = biological target: T2, Amine oxidase [flavin-containing] A; assay: Inhibition of recombinant human MAO-A at 0.1 uM incubated for 15 mins by Amplex Red reagent and horseradish peroxidase based fluorescence microplate reader analysis relative to control; conditions: 0.25 h

inhibition at 1 µM [1] [%]	IC50 [2] [µM]	SMILES	inhibition at 0.1 µM [3] [%]
< 5	> 40	O=C(Nc1ccccc1)c1ccc2c(c1)OCO2	–
< 5	> 40	COc1ccc(NC(=O)c2ccc3c(c2)OCCO3)cc1OC	–
19.7	> 40	COc1cccc(NC(=O)c2ccc3c(c2)OCCO3)c1	–
< 5	> 40	O=C(NCc1ccccc1)c1ccc2c(c1)OCCO2	–
< 5	> 40	O=C(Nc1cccc(Cl)c1)c1ccccc1	–
30.8	> 40	O=C(Nc1ccc2c(c1)OCCO2)c1ccc(Cl)c(Cl)c1	–
< 5	> 40	O=C(Nc1ccccc1Cl)c1ccc2c(c1)OCCO2	–
53	> 40	O=C(Nc1cccc(Cl)c1Cl)c1ccc2c(c1)OCCO2	–
36.1	> 40	O=C(Nc1ccc2c(c1)OCCO2)c1ccc2c(c1)OCCO2	–
27.4	> 40	COc1ccc(NC(=O)c2ccc3c(c2)OCCO3)cc1Cl	–
< 5	> 40	COc1ccc(NC(=O)c2ccc3c(c2)OCCO3)cc1	–
13.8	> 40	O=C(Nc1ccc2[nH]ncc2c1)c1ccc2c(c1)OCCO2	–
19.1	> 40	O=C(Nc1ccccc1F)c1ccc2c(c1)OCCO2	–
–	> 40	O=C(Nc1ccc(Br)cc1)c1ccc2c(c1)OCCO2	–
40.2	> 40	O=C(Nc1ccc(Cl)c(Cl)c1)c1ccccc1	–
–	–	C#CCN(C)CCCOc1ccc(Cl)cc1Cl [CLORGILINE]	79.9
< 5	> 40	O=C(Nc1ccccc1)c1ccccc1 [N-PHENYLBENZAMIDE]	–
